Reference: patent US7851474B2, “Dipiperazinyl ketones and related analogues” (Neurogen Corporation, priority 2005, dated 2010)
Read-outs that look alike come from different tables or passages of the source.

Biological target: T1, chimeric human H3 receptor (Homo sapiens, UniProt Q9Y5N1, E19D)
T1 construct: made in house; host or cells: Sf9 insect cells (baculovirus infection); P2 membrane preparation
Experiment: Chimeric human H3 receptor GTP binding assay (agonist-stimulated GTP-gamma35S binding, Example 7)
Type: biochemical
Settings: read-out: Ki
Summary of the method: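 Sf9 membranes co-expressing the chimeric receptor and heterotrimeric G-protein subunits, 35 μg protein per tube, in pH 7.4 Tris buffer with 10 μM GDP. Test compounds at 10^−10 to 10^−6 M with 1 μM histamine, 60 min at room temperature. Filter-bound GTP-gamma^35S read by scintillation; IC50 from non-linear regression of dose-response curves.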

[1] = Table II "Ki", symbol "*": Ki in the assay of Example 7
[2] = assay of Example 7, symbol * in column headed Ki of Table II
[3] = Table II, "*" in Ki, assay of Example 7
[4] = assay of Example 7, "*" in Ki of Table II
[5] = Table II, assay of Example 7, "*" in Ki

T1 sequence (Q9Y5N1 with tags, fused parts or gaps E19D): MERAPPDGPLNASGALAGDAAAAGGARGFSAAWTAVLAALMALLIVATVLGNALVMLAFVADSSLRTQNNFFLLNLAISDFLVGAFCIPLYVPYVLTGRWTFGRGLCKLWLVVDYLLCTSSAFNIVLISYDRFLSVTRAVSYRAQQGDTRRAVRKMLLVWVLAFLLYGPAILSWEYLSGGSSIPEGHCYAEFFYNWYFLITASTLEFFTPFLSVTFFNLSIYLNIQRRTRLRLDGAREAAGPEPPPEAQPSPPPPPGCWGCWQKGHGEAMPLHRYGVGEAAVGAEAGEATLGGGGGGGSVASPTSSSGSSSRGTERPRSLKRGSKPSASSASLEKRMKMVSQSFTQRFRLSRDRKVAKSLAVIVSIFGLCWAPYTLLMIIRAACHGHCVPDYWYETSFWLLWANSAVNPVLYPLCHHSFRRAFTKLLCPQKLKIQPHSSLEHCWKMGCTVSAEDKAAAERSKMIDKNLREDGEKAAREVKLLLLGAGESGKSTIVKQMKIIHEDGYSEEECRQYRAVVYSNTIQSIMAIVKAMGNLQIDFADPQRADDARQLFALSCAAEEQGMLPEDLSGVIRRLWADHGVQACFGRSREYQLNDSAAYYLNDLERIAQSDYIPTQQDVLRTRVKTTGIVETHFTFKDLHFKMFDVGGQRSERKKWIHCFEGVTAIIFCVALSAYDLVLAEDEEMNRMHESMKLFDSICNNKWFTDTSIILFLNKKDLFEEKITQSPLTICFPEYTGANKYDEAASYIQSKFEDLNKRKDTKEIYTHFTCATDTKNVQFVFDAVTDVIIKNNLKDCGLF

O=C(CN1CCN(c2cccc(F)c2)CC1)N1CCN(C2CCCCC2)CC1 [Compound 819, 1-cyclohexyl-4-{[4-(3-fluorophenyl)piperazin-1-yl]acetyl}piperazine]
Ki [1]: < 1000 nM

CC(C)N1CCN(C(=O)CN2CCN(c3cccc(Cl)c3)CC2)CC1 [Compound 302, 1-(3-chlorophenyl)-4-[2-(4-isopropylpiperazin-1-yl)-2-oxoethyl]piperazine]
Ki [2]: < 1000 nM

Cc1ccc(-c2ccc(N3CCN(CC(=O)N4CCN(C5CCC5)CC4)CC3)cc2)cc1F [Compound 751, 1-cyclobutyl-4-{[4-(3′-fluoro-4′-methylbiphenyl-4-yl)piperazin-1-yl]acetyl}piperazine]
Ki [3]: < 1000 nM

N#Cc1cnc(N2CCN(CC(=O)N3CCN(C4CCC4)CC3)CC2)cn1 [Compound 1158, 5-{4-[2-(4-cyclobutylpiperazin-1-yl)-2-oxoethyl]piperazin-1-yl}pyrazine-2-carbonitrile]
Ki [4]: < 1000 nM

O=C(CN1CCN(c2cccc(C(=O)N3CCCCCC3)c2)CC1)N1CCN(C2CCC2)CC1 [Compound 289, 1-(3-{4-[2-(4-cyclobutylpiperazin-1-yl)-2-oxoethyl]piperazin-1-yl}benzoyl)azepane]
Ki [2]: < 1000 nM

CCC(C)N1CCN(C(=O)CN2CCN(c3cccc(F)c3)CC2)CC1 (stereo not shown) [Compound 874, 1-sec-butyl-4-{[4-(3-fluorophenyl)piperazin-1-yl]acetyl}piperazine]
Ki [1]: < 1000 nM

O=C(CN1CCN(c2cnc(-c3cc(C(F)(F)F)ccc3Cl)cn2)CC1)N1CCN(C2CCC2)CC1 [Compound 912, 2-[2-chloro-5-(trifluoromethyl)phenyl]-5-{4-[2-(4-cyclobutylpiperazin-1-yl)-2-oxoethyl]piperazin-1-yl}pyrazine]
Ki [1]: < 1000 nM

CS(=O)(=O)c1ccc(N2CCN(CC(=O)N3CCN(C4CCCC4)CC3)CC2)cc1 [Compound 828, 1-cyclopentyl-4-({4-[4-(methylsulfonyl)phenyl]piperazin-1-yl}acetyl)piperazine]
Ki [1]: < 1000 nM

O=C(CCC1CCCC1)NC1CCN(CC(=O)N2CCN(C3CCC3)CC2)C1 (stereo not shown) [Compound 1250, N-{1-[2-(4-cyclobutylpiperazin-1-yl)-2-oxoethyl]pyrrolidin-3-yl}-3-cyclopentylpropanamide]
Ki [4]: < 1000 nM

CCC(C)CC(=O)NC1CCN(CC(=O)N2CCN(C3CCC3)CC2)C1 (stereo not shown) [Compound 1251, N-{1-[2-(4-cyclobutylpiperazin-1-yl)-2-oxoethyl]pyrrolidin-3-yl}-3-methylpentanamide]
Ki [4]: < 1000 nM

Cc1ccc(F)c(-c2ccc(N3CCN(CC(=O)N4CCN(C5CCC5)CC4)CC3)cc2)c1Cl [Compound 273, 1-(2′-chloro-6′-fluoro-3′-methylbiphenyl-4-yl)-4-[2-(4-cyclobutylpiperazin-1-yl)-2-oxoethyl]piperazine]
Ki [2]: < 1000 nM

COc1ccc(-c2ccc(N3CCN(CC(=O)N4CCN(C5CCC5)CC4)CC3)nn2)cc1C [Compound 1036, 3-{4-[2-(4-cyclobutylpiperazin-1-yl)-2-oxoethyl]piperazin-1-yl}-6-(4-methoxy-3-methylphenyl)pyridazine]
Ki [5]: < 1000 nM

CC(=O)NC1CCN(CC(=O)N2CCN(C(C)C)CC2)C1 (stereo not shown) [Compound 1259, N-{1-[2-(4-isopropylpiperazin-1-yl)-2-oxoethyl]pyrrolidin-3-yl}acetamide]
Ki [4]: < 1000 nM

CC(C)Oc1cccc(-c2ccc(N3CCN(CC(=O)N4CCN(C5CCC5)CC4)CC3)cc2)c1 [Compound 755, 1-cyclobutyl-4-{[4-(3′-isopropoxybiphenyl-4-yl)piperazin-1-yl]acetyl}piperazine]
Ki [3]: < 1000 nM

COc1cccc(-c2ccc(N3CCN(CC(=O)N4CCN(C5CCC5)CC4)CC3)nn2)c1 [Compound 1020, 3-{4-[2-(4-cyclobutylpiperazin-1-yl)-2-oxoethyl]piperazin-1-yl}-6-(3-methoxyphenyl) pyridazine]
Ki [5]: < 1000 nM

O=C(CN1CCN(c2ccc(C(=O)N3CC=CCC3)cn2)CC1)N1CCN(C2CCC2)CC1 [Compound 609, 1-cyclobutyl-4-({4-[5-(3,6-dihydropyridin-1(2H)-ylcarbonyl)pyridin-2-yl]piperazin-1-yl}acetyl)piperazine]
Ki [3]: < 1000 nM
